Source: publication PMC5428017, “Targeting to the non-genomic activity of retinoic acid receptor-gamma by acacetin in hepatocellular carcinoma” (Scientific Reports, 2017)
Residue numbers refer to the chain shown, from its start. pIC50: −log10 of the molar value.

Experiments:
[1] = molecular target: T1, retinoic acid receptor-γ (RARγ) (Homo sapiens, UniProt P13631, R278A); assay: Gal4-RARγ luciferase reporter in HEK293T cells, […] atRA; type: cell-based; conditions: 0.1 µM
T1 construct: gene RARG; Gal4-RARγ/R278A
T1 sequence (P13631 185-419 R278A limits assumed): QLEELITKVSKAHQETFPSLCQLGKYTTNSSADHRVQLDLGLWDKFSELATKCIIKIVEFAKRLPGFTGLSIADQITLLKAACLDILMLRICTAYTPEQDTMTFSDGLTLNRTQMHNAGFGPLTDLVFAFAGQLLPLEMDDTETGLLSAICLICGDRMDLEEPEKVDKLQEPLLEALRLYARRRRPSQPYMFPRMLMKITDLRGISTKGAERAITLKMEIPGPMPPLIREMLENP

[2] = molecular target: T2, RARα (Homo sapiens, UniProt P10276); assay: competitive radioligand displacement of [3H]atRA from RARα LBD; type: binding
T2 construct: gene RARA; RARα LBD
T2 sequence (P10276 183-417 limits assumed): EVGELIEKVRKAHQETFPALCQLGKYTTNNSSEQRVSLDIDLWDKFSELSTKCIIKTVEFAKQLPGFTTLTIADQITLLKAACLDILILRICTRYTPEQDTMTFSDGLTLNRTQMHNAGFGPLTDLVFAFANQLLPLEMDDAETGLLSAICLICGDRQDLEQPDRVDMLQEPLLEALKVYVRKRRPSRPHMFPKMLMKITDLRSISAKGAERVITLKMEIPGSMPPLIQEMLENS

[3] = molecular target: T3, RARβ (Homo sapiens, UniProt P10826); assay: competitive radioligand displacement of [3H]atRA from RARβ LBD; type: binding
T3 construct: gene RARB; RARβ LBD
T3 sequence (P10826 183-417 limits assumed): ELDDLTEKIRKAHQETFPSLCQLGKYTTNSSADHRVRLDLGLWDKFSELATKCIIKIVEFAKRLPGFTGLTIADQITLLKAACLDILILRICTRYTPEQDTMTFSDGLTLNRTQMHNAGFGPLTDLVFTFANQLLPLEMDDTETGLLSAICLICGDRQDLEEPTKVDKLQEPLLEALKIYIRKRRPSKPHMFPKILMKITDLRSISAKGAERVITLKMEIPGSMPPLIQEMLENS

[4] = molecular target: T4, retinoic acid receptor-γ (RARγ) (Homo sapiens, UniProt P13631); assay: competitive radioligand displacement of [3H]atRA from purified RARγ LBD; supported by GFP-RARγ fluorescence quenching in cells and reporter antagonism; type: binding
T4 construct: gene RARG; RARγ LBD
T4 sequence (P13631 185-419 limits assumed): T1 sequence (P13631 185-419 R278A limits assumed) with A94R

pIC50 [4]	Structure (SMILES)	Gal4-RARγ luciferase reporter in HEK293T cells, 10^-7 M atRA [1] [fold activation]	competitive radioligand displacement of [3H]atRA from RARα LBD [2]	competitive radioligand displacement of [3H]atRA from RARβ LBD [3]
	CC1=C(/C=C/C(C)=C/C=C/C(C)=C/C(=O)O)C(C)(C)CCC1 [atRA]	22	both [^3H]atRA-bound complexes could be displaced by unlabeled atRA but not by acacetin	both [^3H]atRA-bound complexes could be displaced by unlabeled atRA but not by acacetin
4.89	COc1ccc(-c2cc(=O)c3c(O)cc(O)cc3o2)cc1 [acacetin, 5,7-dihydroxy-4′-methoxyflavone]			
